Data on one compound can be found in ChEMBL document CHEMBL6092153, “Research progress of BRD4 in head and neck squamous cell carcinoma: Therapeutic application of novel strategies and mechanisms” (Bioorg Med Chem, 2024).

The test system of data set [1] is SAS. In words: Antiproliferative activity against human SAS cells assessed as reduction in cell viability by MTT assay. It is filed as functional, cell-based.
The test system of data set [2] is ECa-109 cell line. The data set can be described thus: Antiproliferative activity against human EC109 cells assessed as reduction in cell viability measured after 48 hrs by CCK-8 method. The following applies: ECa-109, 48 h. It is filed as functional, cell-based. On the technique in general: Tetrazolium dyes change colour on reduction, which living cells bring about.

Data set [3] in a line: Antiproliferative activity against human HaCaT cells assessed as inhibition of cell growth incubated for 48 hrs by SRB assay. It is filed as toxicity, cell-based. A general note: In SRB staining, fixed cells bind dye roughly in proportion to their protein.
Data set [4] can be described thus: Antiproliferative activity against human HOC313 cells assessed as reduction in cell viability by MTT assay. It is filed as functional, cell-based.
Data set [5] relates to KYSE-150 cell line. In words: Antiproliferative activity against human KYSE-150 cell line assessed as inhibition of cell growth incubated for 48 hrs by CCK-8 assay. The following applies: KYSE-150, 48 h. It is filed as functional, cell-based.
Data set [6] relates to KYSE-450. The data set can be described thus: Antiproliferative activity against human KYSE-450 cells assessed as reduction in cell growth incubated for 48 hrs by MTT assay. Conditions: KYSE-450, 48 h. Format: functional, cell-based.
Data set [7] relates to FaDu. The data set can be described thus: Antiproliferative activity against human FaDu cells assessed as inhibition of cell growth measured after 72 hrs by CCK-8 assay. Format: functional, cell-based.
Data set [8] has as its system KYSE-510. In words: Antiproliferative activity against human KYSE-510 cells assessed as reduction in cell growth incubated for 48 hrs by MTT assay. It is filed as functional, cell-based. Conditions: KYSE-510, 48 h.
Data set [9] relates to KYSE-140. The data set can be described thus: Antiproliferative activity against human KYSE-140 cells assessed as inhibition of cell growth by MTT assay. Format: functional, cell-based.
Data set [10] has as its system TE-1. In words: Antiproliferative activity against human TE-1 cells assessed as inhibition of cell growth by MTT assay. It is filed as functional, cell-based.

As a reminder, the IC50 is the midpoint of a concentration-inhibition curve. As for `Cc1sc2c(c1C)C(c1ccc(Cl)cc1)=N[C@@H](CC(=O)OC(C)(C)C)c1nnc(C)n1-2`, the IC50 was 169 nM in data set [1]; 100 nM in data set [2]; 288 nM in data set [4]; 55400 nM in data set [5]; 124 nM in [6]; 9640 nM in [7]. Also, the values for the IC50 in [8], in data set [9] and in [10] were 121 nM, 4160 nM and 3990 nM, respectively. Besides, the IC50 at 48 h in data set [3] amounted to 320 nM.
